Entries after “also recorded” stand apart in the source; their conditions may differ. Like-named read-outs stand apart in the source and are kept apart here. Positions of bridges follow the written chain, without caps; N, C: chain ends. Residues, ends and D or L forms follow the SMILES beside them.
Tests used:
[1] = test system: Madin Darby canine kidney (MDCK) cells; format: cell-based
Procedure: Yet another assay evaluates the effect of a modulating agent on the electrical resistance across a monolayer of cells. For example, Madin Darby canine kidney (MDCK) cells can be exposed to the modulating agent dissolved in medium (e.g., at a final concentration of 0.5 mg/ml for a period of 24 hours). The effect on electrical resistance can be measured using standard techniques. This assay evaluates the effect of a modulating agent on tight junction formation in epithelial cells. In general, the presence of 500 μg/mL modulating agent should result in a statistically significant decrease in electrical resistance after 24 hours.
Madin Darby canine kidney (MDCK) cells were plated in Millicells (Millipore, Bedford, Mass.), at a density of 300,000 cells per Millicell, and cultured in Dulbecco's Modified Eagle Medium (DMEM; Sigma, St. Louis, Mo.) containing 5% fetal calf serum (Sigma, St. Louis, Mo.) until monolayers formed. Monolayers were exposed to the modulating agent dissolved in medium. The electrical resistance was measured using the EVOM device (World Precision Instruments, Sarasota, Fla.). At the time of measurement, fresh medium, with or without the modulating agent, may be added to the Millicells.

chick N-cadherin = target: T1, chick N-cadherin (Gallus gallus, UniProt P10288); test: Neurite outgrowth of rat cerebellar neurons on N-cadherin expressing 3T3 monolayers (Example 15); format: cell-based; details: Tables 8 and 9
T1 construct: expressed in transfected cells; host or cells: 3T3 fibroblasts (monolayer); rat post-natal day 2-3 cerebellar neurons plated on top
T1 sequence (P10288 165-912): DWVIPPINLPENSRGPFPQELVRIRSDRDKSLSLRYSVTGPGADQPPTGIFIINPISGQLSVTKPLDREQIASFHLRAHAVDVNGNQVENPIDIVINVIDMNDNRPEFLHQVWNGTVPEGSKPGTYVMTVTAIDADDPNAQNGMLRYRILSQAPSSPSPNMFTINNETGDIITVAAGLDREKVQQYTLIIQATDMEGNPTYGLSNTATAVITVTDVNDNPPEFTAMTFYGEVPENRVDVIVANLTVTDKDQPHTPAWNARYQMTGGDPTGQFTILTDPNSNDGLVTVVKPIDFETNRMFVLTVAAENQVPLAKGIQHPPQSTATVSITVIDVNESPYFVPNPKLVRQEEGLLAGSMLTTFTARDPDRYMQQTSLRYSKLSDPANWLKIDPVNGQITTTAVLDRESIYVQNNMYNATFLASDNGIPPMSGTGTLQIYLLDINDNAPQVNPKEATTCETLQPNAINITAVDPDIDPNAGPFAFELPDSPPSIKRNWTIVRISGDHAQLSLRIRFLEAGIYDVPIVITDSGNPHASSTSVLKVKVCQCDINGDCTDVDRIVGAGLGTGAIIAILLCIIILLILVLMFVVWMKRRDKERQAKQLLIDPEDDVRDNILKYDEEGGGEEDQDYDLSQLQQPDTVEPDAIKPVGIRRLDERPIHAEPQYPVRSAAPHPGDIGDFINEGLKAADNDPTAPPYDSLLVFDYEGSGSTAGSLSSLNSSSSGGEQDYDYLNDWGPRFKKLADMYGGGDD

L1 = L1 (Homo sapiens, UniProt P32004); test: Neurite outgrowth of rat cerebellar neurons on L1 expressing 3T3 monolayers (Example 15); format: cell-based; parameters: expressed in transfected cells; rat cerebellar neurons on top
Procedure: Cell culture and neurite outgrowth assays. Co-cultures of cerebellar neurons on monolayers of control 3T3 cells and monolayers of transfected 3T3 cells that express physiological levels of chick N-cadherin or human L1 were established as previously described (Williams et al., Neuron 13:583-594, 1994). In brief, 80,000 3T3 cells (control and transfected) were plated into individual chambers of an eight-chamber tissue culture slide coated with polylysine and fibronectin and cultured in DMEM/10% FCS. After 24 hours, when confluent monolayers had formed, the medium was removed and 3000 cerebellar neurons isolated from post-natal day 2-3 rats were plated into each well in SATO media (Doherty et al., Nature 343:464-466, 1990) supplemented with 2% FCS. All of the test peptides were added immediately before the neurons as a 2× stock prepared in SATO/2% FCS. The co-cultures were maintained for 16-18 hours, at which time they were fixed and immunostained for GAP-43 which is present only in the neurons and delineates the neuritic processes. The mean length of the longest neurite per cell was measured for 150-200 neurons sampled in replicate cultures as previously described (Williams et al., Neuron 13:583-594, 1994). […] Dose-response curves were evaluated and the EC50 values determined.
Other cell adhesion molecules, such as L1, can stimulate neurite outgrowth, and this response shares the same downstream signaling steps as the N-cadherin response. […] As previously reported, L1 stimulated neurite outgrowth from cerebellar neurons.

[2] = test system: Human saphenous vein vascular smooth muscle cells; test: Vascular smooth muscle cell apoptosis at migrating wound edge, in situ end labeling; format: cell-based; details: 0.2 mg/ml, 24 hours after wounding, n=5, p=0.1
Procedure: Human saphenous vein vascular smooth muscle cells were explanted from surplus segments of vein from patients undergoing coronary artery bypass surgery. Cells were maintained in Dulbecco's modified essential medium supplemented with […], 2 mmol/L L-glutamine and 10% fetal calf serum and were grown to confluence on glass coverslips. The cell layer was then subjected to scrape-wounding by drawing a fine cell scraper across the coverslip. Proliferation of the vascular smooth muscle cells was inhibited by addition of 2 mM hydroxyurea to the culture media. Vascular smooth muscle cells that are treated in this manner respond to the wounding of the confluent monolayer by migrating into the wound (Hammerle et al (1991) Vasa 20, 207-215). The percentage of apoptotic cells in the migrating edge (outermost 100 μm from the wound) was assessed by in situ end labeling at 24 hours after wounding (as in George et al (2001) Gene Therapy 8 668-676).

N-cadherin [3] = target: T2, N-cadherin (Homo sapiens, UniProt P19022); details: cited from earlier work
T2 sequence (P19022 160-906): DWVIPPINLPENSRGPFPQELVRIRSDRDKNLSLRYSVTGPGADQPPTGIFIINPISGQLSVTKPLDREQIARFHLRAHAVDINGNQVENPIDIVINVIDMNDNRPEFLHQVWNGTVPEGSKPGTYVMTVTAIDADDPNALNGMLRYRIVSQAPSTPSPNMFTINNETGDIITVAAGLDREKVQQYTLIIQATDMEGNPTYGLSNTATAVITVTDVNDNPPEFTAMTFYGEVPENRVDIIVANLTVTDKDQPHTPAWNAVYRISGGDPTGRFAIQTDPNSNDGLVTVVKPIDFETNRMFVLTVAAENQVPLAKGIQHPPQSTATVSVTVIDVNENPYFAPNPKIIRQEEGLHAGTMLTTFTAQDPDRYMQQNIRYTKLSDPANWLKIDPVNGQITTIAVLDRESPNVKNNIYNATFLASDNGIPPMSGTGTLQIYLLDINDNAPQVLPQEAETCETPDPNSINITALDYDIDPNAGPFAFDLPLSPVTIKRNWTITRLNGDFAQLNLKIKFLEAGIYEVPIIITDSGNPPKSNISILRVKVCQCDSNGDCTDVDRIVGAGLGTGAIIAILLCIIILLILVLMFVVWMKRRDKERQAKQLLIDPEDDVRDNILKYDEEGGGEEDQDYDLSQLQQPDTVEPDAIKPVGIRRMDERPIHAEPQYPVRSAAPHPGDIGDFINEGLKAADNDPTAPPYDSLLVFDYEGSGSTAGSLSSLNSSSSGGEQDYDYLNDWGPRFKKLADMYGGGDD

WI-38 = format: cell-based, human; details: 3 h
How it was run: (§1)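 Cytotoxicity of N-Ac-CHAVC-NH2 and the control peptide N-Ac-CHGVC-NH2 was assessed by MTT reduction in human endothelial, fibroblast and cancer cell lines at concentrations up to 100 μM. Proliferation was measured separately by ^3H-thymidine incorporation over the same concentration range.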

HUVEC = format: cell-based, human; details: 3 h
How it was run: as §1

MDA-MB231 [4] = format: cell-based, human; details: 3 h
How it was run: as §1

PC-3 [5] = format: cell-based, human; details: 3 h
How it was run: as §1

HMVEC = format: cell-based, human; details: 3 h
How it was run: as §1

IAFp2 = format: cell-based, human; details: 3 h
How it was run: as §1

N-cadherin [6] = target: T3, N-cadherin (Gallus gallus, UniProt P10288); test: Neurite outgrowth inhibition, rat neurons (Example 21); format: cell-based; details: read-out: % Inhibition of neurite outgrowth; 250 μg/mL
T3 construct: expressed in transfected cells; host or cells: 3T3 fibroblasts (monolayer)
T3 sequence (P10288 165-912): T1 sequence (P10288 165-912)

MDA-MB231 [7] = test: Cytotoxicity, MTT assay, MDA-MB231; format: cell-based, human
How it was run: as §1

PC-3 [8] = test: Cytotoxicity, MTT assay, PC-3; format: cell-based, human
How it was run: as §1

[9] = test system: Bovine pulmonary artery endothelial cells; test: Disruption of bovine endothelial cell adhesion; format: cell-based; details: 500 μg/ml, 30 minutes
Procedure: For use within one such assay, bovine pulmonary artery endothelial cells may be harvested by sterile ablation and digestion in 0.1% collagenase (type II; Worthington Enzymes, Freehold, N.J.). Cells may be maintained in Dulbecco's minimum essential medium supplemented with 10% fetal calf serum and 1% antibiotic-antimycotic at 37° C. in 7% CO2 in air. Cultures may be passaged weekly in trypsin-EDTA and seeded onto tissue culture plastic at 20,000 cells/cm^2. Endothelial cultures may be used at 1 week in culture, which is approximately 3 days after culture confluency is established. The cells may be seeded onto coverslips and treated (e.g., for 30 minutes) with modulating agent or a control compound at, for example, 500 μg/ml and then fixed with 1% paraformaldehyde. As noted above, disruption of cell adhesion may be determined visually within 24 hours, by observing retraction of the cells from one another. This assay evaluates the effect of a modulating agent on N-cadherin mediated cell adhesion.
Bovine pulmonary artery endothelial cells were harvested by sterile ablation and digestion in 0.1% collagenase (type II; Worthington Enzymes, Freehold, N.J.). Cells were maintained in Dulbecco's minimum essential medium (Clonetics, San Diego, Calif.) supplemented with 10% fetal calf serum (Atlantic Biologicals, Nor cross, Ga.) and 1% antibiotic-antimycotic at 37° C. in 7% CO2 in air. Cultures were passaged weekly in trypsin-EDTA (Gibco, Grand Island, N.Y.) and seeded onto tissue culture plastic at 20,000 cells/cm^2 for all experiments. Endothelial cultures were used at 1 week in culture, which is approximately 3 days after culture confluency was established. The cells used in all protocols were between 4th passage and 10th passage. The cells were seeded onto coverslips and treated 30 minutes with N—Ac-CHAVC-NH2 (SEQ ID NO:10) or N—Ac-CHGVC-NH2 (SEQ ID NO:11) at 500 μg/ml and then fixed with 1% paraformaldehyde.

Solubility in RPMI = format: physicochemical; details: 1 mM

Sequence of L1 (P32004 20-1257): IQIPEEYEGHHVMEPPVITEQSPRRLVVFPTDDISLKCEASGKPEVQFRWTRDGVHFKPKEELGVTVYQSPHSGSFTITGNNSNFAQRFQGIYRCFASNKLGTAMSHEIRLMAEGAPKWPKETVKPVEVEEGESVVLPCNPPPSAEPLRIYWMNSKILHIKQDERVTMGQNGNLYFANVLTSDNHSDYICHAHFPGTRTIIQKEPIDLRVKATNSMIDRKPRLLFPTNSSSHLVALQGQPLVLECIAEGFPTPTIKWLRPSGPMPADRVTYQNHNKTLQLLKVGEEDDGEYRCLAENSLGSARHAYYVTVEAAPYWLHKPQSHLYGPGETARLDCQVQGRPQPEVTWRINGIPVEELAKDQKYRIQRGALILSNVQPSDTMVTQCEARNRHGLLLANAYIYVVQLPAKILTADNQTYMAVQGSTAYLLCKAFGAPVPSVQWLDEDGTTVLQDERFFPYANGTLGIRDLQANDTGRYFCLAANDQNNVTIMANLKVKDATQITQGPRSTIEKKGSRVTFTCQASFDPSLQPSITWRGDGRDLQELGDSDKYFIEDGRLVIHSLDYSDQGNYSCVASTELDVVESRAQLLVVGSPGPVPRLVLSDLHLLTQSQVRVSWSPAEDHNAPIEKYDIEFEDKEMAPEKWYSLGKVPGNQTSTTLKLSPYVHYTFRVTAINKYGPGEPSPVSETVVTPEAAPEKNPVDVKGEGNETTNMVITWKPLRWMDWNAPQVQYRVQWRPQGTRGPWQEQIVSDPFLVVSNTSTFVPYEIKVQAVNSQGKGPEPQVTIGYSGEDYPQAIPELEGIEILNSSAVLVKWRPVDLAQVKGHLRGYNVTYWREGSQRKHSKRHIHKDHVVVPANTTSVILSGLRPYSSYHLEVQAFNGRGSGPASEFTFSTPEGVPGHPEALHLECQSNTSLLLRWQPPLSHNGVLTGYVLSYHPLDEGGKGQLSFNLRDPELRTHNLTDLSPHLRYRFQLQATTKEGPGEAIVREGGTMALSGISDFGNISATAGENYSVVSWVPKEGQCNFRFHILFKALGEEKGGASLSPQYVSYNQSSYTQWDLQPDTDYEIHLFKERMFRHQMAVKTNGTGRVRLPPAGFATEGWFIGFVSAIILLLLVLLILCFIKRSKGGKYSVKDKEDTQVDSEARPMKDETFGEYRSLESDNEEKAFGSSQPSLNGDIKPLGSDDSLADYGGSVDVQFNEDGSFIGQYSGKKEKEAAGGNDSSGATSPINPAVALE

| Compound | effect on electrical resistance across MDCK cells (in words) [1] | inhibitory activity on N-cadherin dependent neurite outgrowth, structure/activity statements (chick N-cadherin) | inhibition at 125 µg/mL (L1; 125 μg/ml, read-out: % Inhibition of L1 Response) | effect on L1 stimulated neurite outgrowth (in words) (L1; concentrations that inhibited the N-cadherin response (100 μg/mL in FIG. 24)) | increase in apoptosis at wound edge [2] | stimulation of neurite outgrowth (N-cadherin [3]) | IC50 (WI-38) | IC50 (HUVEC) | IC50 (MDA-MB231 [4]) | IC50 (PC-3 [5]) | IC50 (HMVEC) | IC50 (IAFp2) | inhibition at 250 µg/mL (N-cadherin [6]) | IC50 (MDA-MB231 [7]) | IC50 (PC-3 [8]) | effect on endothelial cell monolayer / morphology [9] | solubility in RPMI (Solubility in RPMI) |
| --- | --- | --- | --- | --- | --- | --- | --- | --- | --- | --- | --- | --- | --- | --- | --- | --- | --- |
| CC[C@H](C)[C@@H]1NC(=O)[C@H](CC(=O)O)NC(=O)[C@H](C(C)C)NC(=O)[C@H](C)NC(=O)[C@H](Cc2c[nH]cn2)NC(=O)[C@@H](NC(C)=O)CSSC[C@@H](C(N)=O)NC1=O [N—Ac—CHAVDIC—NH2] (Ac-CHAVDIC-NH2; disulfide 1-7) | complete abrogation of E-cadherin specific activity | further increased activity; also recorded: potent inhibitors | 6 ± 4.7% | did not interfere with the ability of neurons to extend neurites over 3T3 cells expressing L1 | 1.3 fold | – | – | – | – | – | – | – | – | – | – | – | – |
| N—AC-CHAVDINGHAVDIC-NH2: cyclic peptide presenting two HAV motifs in an antiparallel fashion (Williams et al. 2002) (Ac-CHAVDINGHAVDIC-NH2; disulfide 1-14 (inferred)) | – | – | – | – | – | capable of stimulating neurite outgrowth | – | – | – | – | – | – | – | – | – | – | – |
| CC[C@H](C)[C@@H]1NC(=O)[C@H](CC(=O)O)NC(=O)[C@H](C(C)C)NC(=O)CNC(=O)[C@H](Cc2c[nH]cn2)NC(=O)[C@H](C)NC(=O)[C@@H](NC(C)=O)CSSC[C@@H](C(N)=O)NC1=O (Ac-CAHGVDIC-NH2; disulfide 1-8) | – | – | – | – | – | – | > 100 µM | > 100 µM | > 100 µM | > 100 µM | > 100 µM | > 100 µM | 0% | > 100 µM | > 100 µM | neither of the cyclic peptides show activity | – |
| CC(=O)N[C@H]1CSSC[C@@H](C(N)=O)NC(=O)[C@H](CO)NC(=O)[C@H](CO)NC(=O)[C@H](C(C)C)NC(=O)[C@H](C)NC(=O)[C@H](Cc2c[nH]cn2)NC(=O)[C@H](CO)NC1=O (Ac-CSHAVSSC-NH2; disulfide 1-8 (inferred)) | – | – | – | – | – | – | > 100 µM | 69 µM | 76 µM | > 100 µM | 70 µM | > 100 µM | 0% | > 100 µM | > 100 µM | – | *Incompletely soluble in RPMI at 1 mM |
| CC(=O)N[C@H]1CSSC[C@@H](C(N)=O)NC(=O)[C@H](CO)NC(=O)[C@H](C(C)C)NC(=O)[C@H](C)NC(=O)[C@H](Cc2c[nH]cn2)NC1=O [N—Ac—CHAVSC—NH2, N-Ac-Cys-His-Ala-Val-Ser-Cys-NH2] (Ac-CHAVSC-NH2; disulfide 1-6 (inferred)) | – | – | – | – | – | – | > 100 µM | 57 µM | 52 µM | > 100 µM | > 100 µM | > 100 µM | 0% | > 100 µM | > 100 µM | – | *Incompletely soluble in RPMI at 1 mM |
